{"source": "patent US20030157159A1", "about": "“Prevention and treatment of digestive tract infections” (priority 2002, published 2003)", "key": {"[1]": {"test_system": "H. pylori strain #26695", "assay": "bactericidal effect of selected terpenes on H. pylori viability", "type": "cell-based, Helicobacter pylori", "design": "key: *NG = no growth; **TNTC = Too Numerous To Count", "settings": "10^6 cfu, 24 hours", "procedure": "Five terpenes (anethole, carvone, citral, geraniol and b-ionone) were used for this study. […] The H. pylori used was strain #26695 of […], this bacteria is a motile, cag A, vac A cytotoxin-positive gram negative bacteria which colonizes gnotobiotic piglets and indefinitely persists within the gastric microenvironment as a superficial infection of the gastric mucosa and mucus layer. 1) Stock solutions of each terpene with polysorbate-80 were prepared (1.8 ml terpene plus 0.2 ml polysorbate-80. […] 3) A total of 1.0×10^6 bacteria (30 ul) was added to 970 ul terpene dilutions (final volume of 1.0 ml) in loosely capped tubes and incubated for 24 hours at 37° C. with continuous mixing. […] Bacterial colony forming units (cfu) were determined visual (counting) inspection. Recovered bacteria were confirmed to be H. pylori by catalase and urease enzyme activities."}, "[2]": {"test_system": "E. coli", "settings": "cited from earlier work"}, "[3]": {"test_system": "E. coli strains AW574 or AW405", "assay": "Lysis of E. coli by terpenes (B-galactosidase/ONPG assay)", "type": "cell-based", "excerpt": "Lysis of the cell membrane was monitored by the determination of galactosidase activity. B-galactosidase is a well-characterized cytosolic enzyme in bacteria. This enzyme is inducible in the presence of isopropyl-1-thiogalactosidase (IPTG) and assayed colorimetricaly with substrate o-nitro-phenyl-B-D-galactoside (ONPG). ONPG is cleaved to release o-nitrophenol with peak absorbance at 420 nm. Since intact E. coli is impermeable to both ONPG and the enzyme, the cells have to be lysed prior to enzymatic assay. Therefore the ability of terpenes to lyse E. coli can be measured with this enzymatic assay and compared to known lysing agents. The procedure used was as follows: E. coli strains AW574 or AW405 were cultured overnight in 10 ml tryptone broth with […] at 35° C. Cells were allowed to growth after an absorbance equal to 0.9 was reached. Cells were harvested, washed with phosphate buffer and resuspended to an absorbance equal to 0.5. One tenth of a ml of the bacteria culture was added to 0.9 ml of buffer, warmed to 30° C. and then 80 ul of terpenes (85% terpenes and 15% polysorbate-80), 80 ul water (background) or 40 ul chloroform plus 40 ul 1% SDS in water (positive control) were added. After the addition of the lysing agents the tubes were mixed for 10 seconds and 0.2 ml of ONPG (4 mg/ml water) was added, then incubated for 5 minutes. The enzyme activity was stopped with 0.5 ml of 1 M sodium carbonate. After being centrifuged for 3 minutes at 1,500×g, supernatant was transferred to cuvettes and read at 420 nm. The relative degree of lysis caused by terpenes was calculated as follows:\n100×(OD terpenes−OD water)/(OD chloroform−OD water)"}, "[4]": {"test_system": "E. coli strain AW574", "assay": "single terpene or combination against E. coli growth (O.D.)", "type": "cell-based", "settings": "single terpene 2 uMol; 24 hours; compared to the control treatment", "procedure": "The objective of this example was to determine an optimum terpene mixture which could have a greater biocidal effect. E. coli strain AW574 was grown in tryptone broth to an exponential growth phase (O.D. between 0.4 and 1.0 at 590 nm). One tenth of this growth was inoculated to 10 ml of tryptone broth following by the addition of individual terpenes or as indicated on table 2; then incubated for 24 hours at 35-37° C. and the O.D. determined in each tube. The concentration of terpenes was 1 or 2 uMol. Each treatment was repeated in triplicate. The results are expressed as percentage bacterial growth as compared to the control treatment. It is observed that the combination of terpenes give better biocidal effect than single terpenes, with geraniol and carvone better than b-ionone."}, "[5]": {"test_system": "H pylori", "settings": "in vitro; cited from earlier work"}, "[6]": {"test_system": "Traveler's Diarrhea", "settings": "Ericsson, Charles (1998); cited from earlier work"}, "[7]": {"settings": "final dilution 1:10 of stock (90% terpene plus 10% polysorbate-80)"}, "[8]": {"settings": "final dilution 1:10000 of stock"}, "[9]": {"settings": "final dilution 1:50000 of stock"}}, "data": [{"compound": "CC(C)=CCCC(C)=CC=O", "note": "[Citral]", "values": [{"measurement": "H. pylori growth (cfu recovered)", "setting": "[1]; [7]", "result": "NG"}, {"measurement": "H. pylori growth (cfu recovered)", "setting": "[1]; final dilution 1:50 of stock", "result": "NG"}, {"measurement": "H. pylori growth (cfu recovered)", "setting": "[1]; final dilution 1:100 of stock", "result": "NG"}, {"measurement": "H. pylori growth (cfu recovered)", "setting": "[1]; final dilution 1:500 of stock", "result": "NG"}, {"measurement": "H. pylori growth (cfu recovered)", "setting": "[1]; final dilution 1:1000 of stock", "result": "NG"}, {"measurement": "H. pylori growth (cfu recovered)", "setting": "[1]; final dilution 1:5000 of stock", "result": "NG"}, {"measurement": "H. pylori growth (cfu recovered)", "setting": "[1]; [8]", "result": "NG"}, {"measurement": "H. pylori growth (cfu recovered)", "setting": "[1]; [9]", "result": "TNTC"}, {"measurement": "concentration in growth media that reduced the concentration of E. coli", "setting": "[2]", "result": "more than 0.01%"}, {"measurement": "concentration with bactericidal effect", "setting": "[2]; growth media", "result": 0.08, "unit": "%"}]}, {"compound": "CC(C)=CCC/C(C)=C/CO", "note": "[Geraniol]", "values": [{"measurement": "Relative lysis", "setting": "[3]; 3.63 uM", "result": 2.4, "unit": "%"}, {"measurement": "Relative lysis", "setting": "[3]; 36.3 uM", "result": 4, "unit": "%"}, {"measurement": "Relative lysis", "setting": "[3]; 363 uM", "result": 34, "unit": "%"}, {"measurement": "Relative lysis", "setting": "[3]; 3,630 uM", "result": 98, "unit": "%"}, {"measurement": "Relative lysis", "setting": "[3]; 36,300 uM", "result": 96, "unit": "%"}, {"measurement": "H. pylori growth (cfu recovered)", "setting": "[1]; [7]", "result": "NG"}, {"measurement": "H. pylori growth (cfu recovered)", "setting": "[1]; final dilution 1:50 of stock", "result": "NG"}, {"measurement": "H. pylori growth (cfu recovered)", "setting": "[1]; final dilution 1:100 of stock", "result": "NG"}, {"measurement": "H. pylori growth (cfu recovered)", "setting": "[1]; final dilution 1:500 of stock", "result": "NG"}, {"measurement": "H. pylori growth (cfu recovered)", "setting": "[1]; final dilution 1:1000 of stock", "result": "NG"}, {"measurement": "H. pylori growth (cfu recovered)", "setting": "[1]; final dilution 1:5000 of stock", "result": "NG"}, {"measurement": "H. pylori growth (cfu recovered)", "setting": "[1]; [8]", "result": "10^2 cfu"}, {"measurement": "H. pylori growth (cfu recovered)", "setting": "[1]; [9]", "result": "TNTC"}, {"measurement": "% growth", "setting": "[4]", "result": 54.00, "unit": "%"}, {"measurement": "concentration that inhibited the growth of H pylori", "setting": "[5]", "result": 2, "unit": "mg/lt."}]}, {"compound": "C=C(C)C1CC=C(C)C(=O)C1", "note": "(stereo not shown) [Carvone]", "values": [{"measurement": "Relative lysis", "setting": "[3]; 404 uM", "result": 3.2, "unit": "%"}, {"measurement": "Relative lysis", "setting": "[3]; 4,040 uM", "result": 22, "unit": "%"}, {"measurement": "Relative lysis", "setting": "[3]; 40,400 uM", "result": 54, "unit": "%"}, {"measurement": "H. pylori growth (cfu recovered)", "setting": "[1]; [7]", "result": "NG"}, {"measurement": "H. pylori growth (cfu recovered)", "setting": "[1]; final dilution 1:50 of stock", "result": "NG"}, {"measurement": "H. pylori growth (cfu recovered)", "setting": "[1]; final dilution 1:100 of stock", "result": "NG"}, {"measurement": "H. pylori growth (cfu recovered)", "setting": "[1]; final dilution 1:500 of stock", "result": "NG"}, {"measurement": "H. pylori growth (cfu recovered)", "setting": "[1]; final dilution 1:1000 of stock", "result": "NG"}, {"measurement": "H. pylori growth (cfu recovered)", "setting": "[1]; final dilution 1:5000 of stock", "result": "10^4 cfu"}, {"measurement": "H. pylori growth (cfu recovered)", "setting": "[1]; [8]", "result": "TNTC"}, {"measurement": "H. pylori growth (cfu recovered)", "setting": "[1]; [9]", "result": "TNTC"}, {"measurement": "% growth", "setting": "[4]", "result": 63.00, "unit": "%"}]}, {"compound": "Trimethropim-sulfamethoxazole [reference compound]", "values": [{"measurement": "Efficacy", "setting": "[6]", "result": "70-80% protective"}]}, {"compound": "Polysorbate-80 [reference compound]", "values": [{"measurement": "Relative lysis", "setting": "[3]; 80 ul Polysorbate-80", "result": 3.2, "unit": "%"}, {"measurement": "H. pylori growth (cfu recovered)", "setting": "[1]; [7]", "result": "NG*"}, {"measurement": "H. pylori growth (cfu recovered)", "setting": "[1]; final dilution 1:50 of stock", "result": "NG"}, {"measurement": "H. pylori growth (cfu recovered)", "setting": "[1]; final dilution 1:100 of stock", "result": "NG"}, {"measurement": "H. pylori growth (cfu recovered)", "setting": "[1]; final dilution 1:500 of stock", "result": "10^3 cfu"}, {"measurement": "H. pylori growth (cfu recovered)", "setting": "[1]; final dilution 1:1000 of stock", "result": "10^4 cfu"}, {"measurement": "H. pylori growth (cfu recovered)", "setting": "[1]; final dilution 1:5000 of stock", "result": "TNTC**"}, {"measurement": "H. pylori growth (cfu recovered)", "setting": "[1]; [8]", "result": "TNTC"}, {"measurement": "H. pylori growth (cfu recovered)", "setting": "[1]; [9]", "result": "TNTC"}]}, {"compound": "CC(=O)/C=C/C1=C(C)CCCC1(C)C", "note": "[b-Ionone]", "values": [{"measurement": "Relative lysis", "setting": "[3]; 0.0308 uM", "result": 1.3, "unit": "%"}, {"measurement": "Relative lysis", "setting": "[3]; 0.308 uM", "result": 4.78, "unit": "%"}, {"measurement": "Relative lysis", "setting": "[3]; 3.08 uM", "result": 23, "unit": "%"}, {"measurement": "Relative lysis", "setting": "[3]; 30.8 uM", "result": 44, "unit": "%"}, {"measurement": "Relative lysis", "setting": "[3]; 308 uM", "result": 52, "unit": "%"}, {"measurement": "H. pylori growth (cfu recovered)", "setting": "[1]; [7]", "result": "NG"}, {"measurement": "H. pylori growth (cfu recovered)", "setting": "[1]; final dilution 1:50 of stock", "result": "NG"}, {"measurement": "H. pylori growth (cfu recovered)", "setting": "[1]; final dilution 1:100 of stock", "result": "NG"}, {"measurement": "H. pylori growth (cfu recovered)", "setting": "[1]; final dilution 1:500 of stock", "result": "NG"}, {"measurement": "H. pylori growth (cfu recovered)", "setting": "[1]; final dilution 1:1000 of stock", "result": "NG"}, {"measurement": "H. pylori growth (cfu recovered)", "setting": "[1]; final dilution 1:5000 of stock", "result": "NG"}, {"measurement": "H. pylori growth (cfu recovered)", "setting": "[1]; [8]", "result": "NG"}, {"measurement": "H. pylori growth (cfu recovered)", "setting": "[1]; [9]", "result": "TNTC"}, {"measurement": "% growth", "setting": "[4]", "result": 84.00, "unit": "%"}]}, {"compound": "CC=Cc1ccc(OC)cc1", "note": "[Anethole]", "values": [{"measurement": "H. pylori growth (cfu recovered)", "setting": "[1]; [7]", "result": "NG"}, {"measurement": "H. pylori growth (cfu recovered)", "setting": "[1]; final dilution 1:50 of stock", "result": "NG"}, {"measurement": "H. pylori growth (cfu recovered)", "setting": "[1]; final dilution 1:100 of stock", "result": "NG"}, {"measurement": "H. pylori growth (cfu recovered)", "setting": "[1]; final dilution 1:500 of stock", "result": "NG"}, {"measurement": "H. pylori growth (cfu recovered)", "setting": "[1]; final dilution 1:1000 of stock", "result": "10^3 cfu"}, {"measurement": "H. pylori growth (cfu recovered)", "setting": "[1]; final dilution 1:5000 of stock", "result": "10^3 cfu"}, {"measurement": "H. pylori growth (cfu recovered)", "setting": "[1]; [8]", "result": "TNTC"}, {"measurement": "H. pylori growth (cfu recovered)", "setting": "[1]; [9]", "result": "TNTC"}]}, {"compound": "Lactobacillus", "values": [{"measurement": "Efficacy", "setting": "[6]", "result": "Not proven"}]}]}
